According to patent US4305942A, “Xanthine oxidase inhibitor and therapeutic treatment using same” (Siegfried Aktiengesellschaft, priority 1979, dated 1981):
Like-named read-outs stand apart in the source and are kept apart here.

How the values were obtained:
[1] = cited from earlier work
xanthine oxidase = target: T1, xanthine oxidase (Bos taurus, UniProt P80457); test: xanthine oxidase inhibition in vitro (UV-spectrophotometric uric acid formation at 290 nm from hypoxanthine); assay type: biochemical; settings: for Inhibition (%) of xanthine oxidase: 6 minutes, ambient temperature
T1 construct: purchased CALBIOCHEM 682151
Procedure: In the human in vivo metabolism the xanthine oxidase decomposes xanthine and hypoxanthine, respectively, to yield uric acid. This decomposition reaction can be perfectly simulated in vitro. For this purpose buffered solutions of (a) hypoxanthine, (b) xanthine oxidase and (c) the test substance are prepared. Solution (a) and (c) are mixed and filled into the cuvette of a UV-spectrophotometer. Solution (b) is then added into the cuvette. The UV-spectrophotometer is adjusted to 290 nm, i.e. to one of the main absorption lines of uric acid. Registration of the intensity of the 290 nm line is commenced immediately upon adding solution (b), i.e., upon adding the xanthine oxidase solution. The measurement is continued for exactly 6 minutes. For each test substance a certain number of measurements is carried out at varying concentrations of the test substance. The registered intensity values obtained after a certain time, here after 6 minutes, are compared to a standard registration containing as a solution (c) a blank buffer solution.
For the present measurements the UV-spectrophotometer used is a ZEISS PM Q II.
Solution (a) is 1 ml hypoxanthine puriss (FLUKA No. 56700) dissolved in a concentration of 1.5×10^-4 moles/liter in a 0.067 molar phosphate buffer solution having a pH of 7.4.
Solution (b) is 1 ml xanthine oxidase (CALBIOCHEM No. 682151) having a specific activity of 2.65 I.U./ml at 30° C., and is diluted in a ratio of 1:200 in the same phosphate buffer as used in solution (a).
Solution (c) is 1 ml of blank phosphate buffer for controls (standards) and a solution of the test substance dissolved in said phosphate buffer in varying concentrations, respectively.
The spectrophotometric measurements are carried out at ambient temperature.

T1 sequence (P80457 whole entry): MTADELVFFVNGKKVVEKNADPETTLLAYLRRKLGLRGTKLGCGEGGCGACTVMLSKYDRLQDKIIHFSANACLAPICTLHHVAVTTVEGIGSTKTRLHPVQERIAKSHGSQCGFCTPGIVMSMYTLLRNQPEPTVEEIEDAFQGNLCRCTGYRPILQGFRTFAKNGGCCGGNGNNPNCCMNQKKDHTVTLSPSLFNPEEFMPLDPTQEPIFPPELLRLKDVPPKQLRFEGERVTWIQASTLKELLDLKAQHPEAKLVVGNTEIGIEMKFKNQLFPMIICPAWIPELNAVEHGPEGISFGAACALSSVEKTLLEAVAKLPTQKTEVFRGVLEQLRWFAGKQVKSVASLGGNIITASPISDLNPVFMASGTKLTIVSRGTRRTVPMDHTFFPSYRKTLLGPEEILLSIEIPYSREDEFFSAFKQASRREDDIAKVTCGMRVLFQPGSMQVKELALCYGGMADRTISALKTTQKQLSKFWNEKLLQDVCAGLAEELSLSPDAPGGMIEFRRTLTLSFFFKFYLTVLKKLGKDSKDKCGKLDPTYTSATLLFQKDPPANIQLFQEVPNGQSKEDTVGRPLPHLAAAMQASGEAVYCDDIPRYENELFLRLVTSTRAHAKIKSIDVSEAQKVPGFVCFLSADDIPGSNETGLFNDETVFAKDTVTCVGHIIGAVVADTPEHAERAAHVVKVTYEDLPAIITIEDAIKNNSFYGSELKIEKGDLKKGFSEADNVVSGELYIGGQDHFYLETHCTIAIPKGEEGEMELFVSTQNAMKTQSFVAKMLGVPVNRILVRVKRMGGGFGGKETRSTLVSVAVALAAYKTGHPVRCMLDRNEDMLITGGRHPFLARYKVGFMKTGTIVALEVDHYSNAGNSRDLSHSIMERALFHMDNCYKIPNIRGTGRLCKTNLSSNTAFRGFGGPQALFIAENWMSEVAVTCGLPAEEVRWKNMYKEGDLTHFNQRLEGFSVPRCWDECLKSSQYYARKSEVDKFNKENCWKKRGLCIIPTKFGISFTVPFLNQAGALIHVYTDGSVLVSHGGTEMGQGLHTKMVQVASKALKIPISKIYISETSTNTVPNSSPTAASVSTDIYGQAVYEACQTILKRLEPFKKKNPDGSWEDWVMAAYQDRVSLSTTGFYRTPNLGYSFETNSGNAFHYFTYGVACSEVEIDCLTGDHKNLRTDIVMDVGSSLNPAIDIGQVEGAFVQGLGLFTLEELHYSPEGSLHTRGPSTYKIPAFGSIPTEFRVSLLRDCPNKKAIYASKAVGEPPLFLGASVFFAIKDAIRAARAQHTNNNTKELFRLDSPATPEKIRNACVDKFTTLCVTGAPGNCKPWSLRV

Oc1ncnc2[nH]ncc12 [allopurinol]
plasma level ([1]; 300 mg/d allopurinol orally in one single portion): 2000 ng/mL

CCCC1C(=O)N2C(N(C)C)=Nc3ccc(C)cc3N2C1=O (stereo not shown) [azapropazone, 3-dimethylamino-7-methyl-1,2-(n-propylmalonyl)-1,2-dihydro-1,2,4-benzotriazine dihydrate]
Inhibition (%) of xanthine oxidase (xanthine oxidase; 1.25 × 10^-5 moles/liter azapropazone, pH 7.4): 20%
Inhibition (%) of xanthine oxidase (xanthine oxidase; 2.50 × 10^-5 moles/liter azapropazone, pH 7.4): 35%
Inhibition (%) of xanthine oxidase (xanthine oxidase; 5.00 × 10^-5 moles/liter azapropazone, pH 7.4): 55%
IC50 (xanthine oxidase; 50% inhibition concentration (xanthine oxidase), IC50 expressed in μg/ml): 44.9 µM
IC50 (xanthine oxidase; 50% inhibitive concentration IC50 (xanthine oxidase), interpolated from inhibition values, hypoxanthine substrate, pH 7.4): 40 µM
plasma level ([1]; 1000 mg/d azapropazone orally in one single portion): 80800 ng/mL
